Measured values from PubChem BioAssay AID248 (DTP/NCI, 2004).
Toxic doses and inconclusive results are not listed.

Tested on: L1210 leukemia ip in BDF1 mice, survival T/C
Assay: NCI In Vivo Anticancer Drug Screen. Data for tumor model L1210 Leukemia (intraperitoneal) in B6D2F1 (BDF1) mice
Settings: endpoint: mean survival time, higher = longer survival
In short: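 In this screen, tumor-bearing mice given compound are compared to those given vehicle, and their survival values are reported as a treated-to-control quotient.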

[1] = dose: 100.0 mg/kg/injection, schedule: Q01DX001 (ip), vehicle: saline
[2] = dose: 200.0 mg/kg/injection, schedule: Q01DX001 (ip), vehicle: saline
[3] = dose: 400.0 mg/kg/injection, schedule: Q01DX001 (ip), vehicle: saline
[4] = dose: 100.0 mg/kg/injection, schedule: Q04DX003 (ip), vehicle: Klucel (hydroxypropylcellulose) (HPC)
[5] = dose: 200.0 mg/kg/injection, schedule: Q04DX003 (ip), vehicle: Klucel (hydroxypropylcellulose) (HPC)
[6] = dose: 100.0 mg/kg/injection, schedule: Q04DX003 (ip), vehicle: saline
[7] = dose: 200.0 mg/kg/injection, schedule: Q04DX003 (ip), vehicle: saline
[8] = dose: 400.0 mg/kg/injection, schedule: Q04DX003 (ip), vehicle: Klucel (hydroxypropylcellulose) (HPC)
[9] = dose: 12.5 mg/kg/injection, schedule: Q04DX003 (ip), vehicle: saline
[10] = dose: 100.0 mg/kg/injection, schedule: Q01DX009 (ip), vehicle: saline
[11] = dose: 200.0 mg/kg/injection, schedule: Q01DX009 (ip), vehicle: saline
[12] = dose: 100.0 mg/kg/injection, schedule: Q01DX009 (ip), vehicle: Klucel (hydroxypropylcellulose) (HPC)
[13] = dose: 200.0 mg/kg/injection, schedule: Q01DX009 (ip), vehicle: Klucel (hydroxypropylcellulose) (HPC)
[14] = dose: 400.0 mg/kg/injection, schedule: Q01DX009 (ip), vehicle: Klucel (hydroxypropylcellulose) (HPC)
[15] = dose: 100.0 mg/kg/injection, schedule: Q04DX002 (ip), vehicle: Klucel (hydroxypropylcellulose) (HPC)
[16] = dose: 200.0 mg/kg/injection, schedule: Q04DX002 (ip), vehicle: Klucel (hydroxypropylcellulose) (HPC)
[17] = dose: 400.0 mg/kg/injection, schedule: Q04DX002 (ip), vehicle: Klucel (hydroxypropylcellulose) (HPC)
[18] = dose: 50.0 mg/kg/injection, schedule: Q01DX009 (ip), vehicle: saline
[19] = dose: 100.0 mg/kg/injection, schedule: Q04DX003 (ip), vehicle: saline with Tween-80
[20] = dose: 200.0 mg/kg/injection, schedule: Q04DX003 (ip), vehicle: saline with Tween-80

CCOP1(=O)OCC(C)(C)CO1
T/C [1]: 98 % of control
T/C [2]: 96 % of control
T/C [3]: 102 % of control

CC(N)c1ccccc1 (stereo unspecified)
T/C (dose: 100.0 mg/kg/injection, schedule: Q01DX001 (ip), vehicle: saline with Tween-80): 95 % of control
T/C (dose: 200.0 mg/kg/injection, schedule: Q01DX001 (ip), vehicle: saline with Tween-80): 90 % of control

Brc1ncc2ccccc2c1Br
T/C [4]: 108 % of control
T/C [5]: 94 % of control

C/C(=C\Cl)C(=O)O
T/C [6]: 99 % of control
T/C [7]: 101 % of control

Cc1c(N)c(C)c(-c2c(O)c(Br)c(C)c(O)c2Br)c(C)c1Br
T/C (dose: 100.0 mg/kg/injection, schedule: Q01DX001 (ip), vehicle: Klucel (hydroxypropylcellulose) (HPC)): 93 % of control
T/C [4]: 102 % of control
T/C (dose: 200.0 mg/kg/injection, schedule: Q01DX001 (ip), vehicle: Klucel (hydroxypropylcellulose) (HPC)): 98 % of control
T/C [5]: 96 % of control
T/C (dose: 400.0 mg/kg/injection, schedule: Q01DX001 (ip), vehicle: Klucel (hydroxypropylcellulose) (HPC)): 87 % of control
T/C [8]: 94 % of control

CCC(C)(CC)NC(C)=O
T/C [4]: 99 % of control
T/C [5]: 103 % of control

CCCCNc1c(C(=O)OCC)cnc2c1cnn2CC
T/C (dose: 12.0 mg/kg/injection, schedule: Q01DX009 (ip), vehicle: Klucel (hydroxypropylcellulose) (HPC)): 100 % of control
T/C (dose: 25.0 mg/kg/injection, schedule: Q01DX009 (ip), vehicle: Klucel (hydroxypropylcellulose) (HPC)): 96 % of control
T/C (dose: 50.0 mg/kg/injection, schedule: Q01DX009 (ip), vehicle: Klucel (hydroxypropylcellulose) (HPC)): 106 % of control
T/C (dose: 75.0 mg/kg/injection, schedule: Q01DX009 (ip), vehicle: Klucel (hydroxypropylcellulose) (HPC)): 96 % of control

Cc1cccc2cc3cccc[n+]3cc12
T/C (dose: 1.56 mg/kg/injection, schedule: Q04DX003 (ip), vehicle: saline): 101 % of control
T/C (dose: 3.12 mg/kg/injection, schedule: Q01DX009 (ip), vehicle: saline): 96 % of control
T/C (dose: 3.12 mg/kg/injection, schedule: Q04DX003 (ip), vehicle: saline): 93 % of control
T/C (dose: 6.25 mg/kg/injection, schedule: Q01DX009 (ip), vehicle: saline): 96 % of control
T/C (dose: 6.25 mg/kg/injection, schedule: Q04DX003 (ip), vehicle: saline): 97 % of control
T/C [9]: 100 % of control

O=C1OC2C(I)C3CCC2C1C3 (stereo unspecified)
T/C [10]: 98 % of control
T/C [6]: 102 % of control
T/C [11]: 102 % of control
T/C [7]: 105 % of control
T/C (dose: 400.0 mg/kg/injection, schedule: Q01DX009 (ip), vehicle: saline): 98 % of control
T/C (dose: 400.0 mg/kg/injection, schedule: Q04DX003 (ip), vehicle: saline): 98 % of control

CCCCCCC(=O)C(C)C
T/C [12]: 93 % of control
T/C [4]: 89 % of control
T/C [13]: 96 % of control
T/C [5]: 88 % of control
T/C [14]: 106 % of control
T/C [8]: 98 % of control

CCCCSCC(N)C(=O)O (stereo unspecified)
T/C [12]: 96 % of control
T/C [4]: 92 % of control
T/C [13]: 96 % of control
T/C [5]: 94 % of control
T/C [14]: 98 % of control
T/C [8]: 103 % of control

O=S(=O)(O)CCC(O)S(=O)(=O)O (stereo unspecified)
T/C [15]: 98 % of control
T/C [16]: 92 % of control
T/C [17]: 92 % of control

O=C1c2ccccc2C(=O)C2C3C=CC(CC3)C12 (stereo unspecified)
T/C (dose: 50.0 mg/kg/injection, schedule: Q01DX001 (ip), vehicle: carboxymethylcellulose (CMC)): 100 % of control
T/C (dose: 100.0 mg/kg/injection, schedule: Q01DX001 (ip), vehicle: carboxymethylcellulose (CMC)): 97 % of control
T/C (dose: 200.0 mg/kg/injection, schedule: Q01DX001 (ip), vehicle: carboxymethylcellulose (CMC)): 97 % of control
T/C (dose: 400.0 mg/kg/injection, schedule: Q01DX001 (ip), vehicle: carboxymethylcellulose (CMC)): 97 % of control

CC1CC(C)S(=O)(=O)C1 (stereo unspecified)
T/C (dose: 12.5 mg/kg/injection, schedule: Q01DX009 (ip), vehicle: saline): 94 % of control
T/C [9]: 97 % of control
T/C (dose: 25.0 mg/kg/injection, schedule: Q01DX001 (ip), vehicle: saline): 104 % of control
T/C (dose: 25.0 mg/kg/injection, schedule: Q01DX009 (ip), vehicle: saline): 108 % of control
T/C (dose: 25.0 mg/kg/injection, schedule: Q04DX003 (ip), vehicle: saline): 95 % of control
T/C (dose: 50.0 mg/kg/injection, schedule: Q01DX001 (ip), vehicle: saline): 104 % of control
T/C [18]: 91 % of control
T/C (dose: 50.0 mg/kg/injection, schedule: Q04DX003 (ip), vehicle: saline): 93 % of control

Cc1cc(NC(=O)Nc2cccc(C3=NCCN3)c2)ccc1NC(=O)Nc1cccc(C2=NCCN2)c1
T/C (dose: 15.0 mg/kg/injection, schedule: Q01DX Z (ip), vehicle: saline): 93 % of control
T/C (dose: 30.0 mg/kg/injection, schedule: Q01DX Z (ip), vehicle: saline): 103 % of control
T/C (dose: 60.0 mg/kg/injection, schedule: Q01DX Z (ip), vehicle: saline): 109 % of control
T/C (dose: 240.0 mg/kg/injection, schedule: Q01DX Z (ip), vehicle: saline): 171 % of control
T/C (dose: 480.0 mg/kg/injection, schedule: Q01DX Z (ip), vehicle: saline): 192 % of control

NC(N)=NC1CCCCC1
T/C [6]: 102 % of control
T/C [7]: 112 % of control

COc1ccc(OC)c(NC(=O)Nc2ccc(I)cc2)c1
T/C [15]: 96 % of control
T/C [16]: 96 % of control
T/C [17]: 107 % of control

O=c1[nH]c(-c2ccccc2)c(Br)c(=O)[nH]1
T/C [19]: 97 % of control
T/C [20]: 107 % of control
T/C (dose: 400.0 mg/kg/injection, schedule: Q04DX003 (ip), vehicle: saline with Tween-80): 100 % of control

CS(=O)(=O)OCCN(CCOS(C)(=O)=O)c1ccc(C=Nc2cccc(Br)c2)c(Cl)c1
T/C [4]: 111 % of control
T/C [5]: 111 % of control
T/C [8]: 120 % of control

N#Cc1ncn(C2OC(CO)C(O)C2O)c1N (stereo unspecified)
T/C (dose: 100.0 mg/kg/injection, schedule: Q01DX005 (ip), vehicle: saline): 103 % of control
T/C (dose: 200.0 mg/kg/injection, schedule: Q01DX005 (ip), vehicle: saline): 96 % of control

NNC(=O)c1cc(N)nc(Cl)c1
T/C [1]: 96 % of control
T/C [2]: 96 % of control
T/C [3]: 98 % of control

C#CC(C)OCC1CO1 (stereo unspecified)
T/C [18]: 86 % of control
T/C [10]: 86 % of control
T/C (dose: 100.0 mg/kg/injection, schedule: Q04DX003 (ip), vehicle: saline sonified): 117 % of control
T/C [11]: 93 % of control
T/C (dose: 200.0 mg/kg/injection, schedule: Q04DX003 (ip), vehicle: saline sonified): 93 % of control

O=[N+]([O-])c1ccc(/C=N\Nc2ccccn2)s1
T/C [19]: 93 % of control
T/C [20]: 93 % of control

CC(=O)c1cccc(N2C(=O)CC(=P(c3ccccc3)(c3ccccc3)c3ccccc3)C2=O)c1
T/C (dose: 75.0 mg/kg/injection, schedule: Q01DX001 (ip), vehicle: saline): 93 % of control

Clc1ccc(N2CCN(CCCN3CCN(c4cccc(Cl)c4)CC3)CC2)cc1
T/C [4]: 88 % of control
T/C [5]: 91 % of control
